# Where “and” joins values, the source holds several entries; their conditions need not be identical. Identical values can stand only once.
# Assays:
# [1] = test system: fondaparinux; assay: In vivo neutralization of fondaparinux in the rat; conditions: for reduction of Factor Xa (anti-factor Xa) levels after fondaparinux: fondaparinux 0.5 mg/kg IV, test agent 2 and 5 mg/kg IV
# Procedure: Compounds were selected to test fondaparinux neutralization in vivo. Rats were pre-treated with fondaparinux administered by IV injection at 0.5 mg/kg. The rats were then treated with a single IV injection of saline, protamine or the PMX compound. Blood was collected via the orbital sinus from three rats per group at the following time points: pre-dose, 1, 3, 10, 30 and 60 min. Plasma samples were prepared for analysis of anti-factor Xa activity using an AMEX Destiny Plus Coagulation Analyzer.
# [2] = test system: enoxaparin; assay: In vivo neutralization of enoxaparin in the rat; conditions: for in vivo efficacy versus LMWH by anti-factor Xa activity (summary): compared with protamine; for neutralization of enoxaparin (aPTT and factor Xa assays, words): rat, enoxaparin 2 mg/kg IV
# Procedure: Compounds were tested for their ability to neutralize enoxaparin coagulation inhibition in rats. Male Sprague-Dawley rats were used in this study (Charles River Laboratories). They were ten-weeks-old at the start of the study and their weights ranged from 319-362 g. Enoxaparin (2 mg/kg) was administered by IV injection to groups of six rats. After 3 min, saline, protamine or a test compound was administered by IV injection. Blood was collected before dosing with enoxaparin, and at 1, 3, 10, 30 and 60 min after dosing with the standard and test compounds. All treatments were dosed in a volume of 1 mL/kg. Blood was collected via the orbital sinus from three rats per group. At each time point, 1 mL of blood was collected from each animal into a single tube. The blood was analyzed using an AMEX Destiny Plus Coagulation Analyzer for activated partial thromboplastin time (APTT) and anti-Factor Xa (low-molecular weight).
# [3] = test system: blood pressure; assay: Hemodynamic responses in the anesthetized rat; format: in vivo; conditions: for hemodynamic liabilities (summary): rat, in vivo
# Text: As a key safety issue for cationic compounds is reduction in blood pressure shortly after administration. To address this hemodynamic issue, a medicinal chemistry strategy with literature precedence of introducing carboxylic acid functionality was applied to the salicylamide series of compounds. […] Surgically prepared animals were purchased from Charles River Laboratories, Raleigh, N.C. Animals were anesthetized on the day of experiment with isoflurane (1.8-4%). Blood pressure and heart rate data were collected on a Grass Polygraph recorder. The test articles, vehicle or protamine dosing preparations were administered once to each rat by a 10 minute intravenous infusion three minutes following a single intravenous injection of heparin (50 U/kg). Each animal received a dose volume of 2.0 mL/kg. Blood pressure was recorded prior to treatment for approximately 1 minute and immediately following heparin, immediately following vehicle, test articles or protamine and at 5, 15, 30, and 60 minutes following dosing. The doses of test agent were either 8 mg/kg or 16 mg/kg. The differences in hemodynamic effect at 16 mg/kg were especially profound (FIG. 5).
# [4] = test system: fondaparinux; assay: FXa amidolytic assay (Example 10), fondaparinux
# Procedure: (§2) Two μl of test agent are added (range between 0.01 and 23 ug/ml) and incubated for 5 minutes at 23° C. Bovine Factor Xa was added to a final concentration of 0.636 nkat/mL and incubated for a further 10 minutes at 23° C.
# [5] = test system: isolated human erythrocytes; assay: in vitro; format: cell-based
# Procedure, shortened: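 Test agent was serially diluted two-fold over 0.48–1000 µg/ml and incubated for 1 h at 37 °C with shaking, using erythrocytes from pooled human blood diluted in Tris-buffered saline pH 7.4 (0.22% stock). Hemolysis was measured as supernatant absorbance at 405 nm. A four-parameter logistic equation gave EC50, and melittin served as the positive control.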
# [6] = test system: HepG2 cells; assay: Cytotoxicity colorimetric assay, HepG2; format: cell-based, human; parameters: Cytotoxicity HepG2, percent printed in parentheses after the concentration: concentration or dose not given beside the values; conditions: for Cytotoxicity HepG2, percent printed in parentheses after the concentration: at the concentration given; for Cytotoxicity HepG2 EC50: one hour in serum-free media
# Procedure, shortened: (§1)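 HepG2 cells (3×10^4/well, MEM + 10% FBS) and NIH/3T3 cells (2×10^4/well, DMEM + 10% BCS) were exposed to compound for 1 h in serum-free medium. Viability read by tetrazolium-to-formazan bioreduction after return to serum medium; EC50 from a four-parameter logistic fit.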
# [7] = Cytotoxicity colorimetric assay, HepG2; format: cell-based, human; parameters: Cytotoxicity HepG2, percent printed in parentheses after the concentration: concentration or dose not given beside the values; conditions: human, HepG2 cells, one hour in serum-free media
# Procedure, shortened: as §1
# [8] = test system: enoxaparin; assay: FXa amidolytic assay (Example 10), enoxaparin; conditions: read-out: Enox FXa EC50; enoxaparin 0.1 ug/ml; human antithrombin, bovine Factor Xa
# Procedure: as §2
# [9] = test system: UFH; assay: FXa amidolytic assay (Example 10), UFH; conditions: read-out: Heparin FXa uM EC50; UFH 0.03 units/mL; human antithrombin, bovine Factor Xa
# Procedure: as §2
# [10] = test system: NIH/3T3 cells; assay: Cytotoxicity colorimetric assay, NIH/3T3; format: cell-based, mouse; conditions: for Cytotoxicity 3T3, percent printed in parentheses after the concentration: at the concentration given; for Cytotoxicity 3T3 EC50: one hour in serum-free media
# Procedure, shortened: as §1
# [11] = Cytotoxicity colorimetric assay, NIH/3T3; format: cell-based, mouse; conditions: mouse, NIH/3T3 cells, one hour in serum-free media
# Procedure, shortened: as §1
# [12] = test system: enoxaparin; assay: Enoxaparin-extended bleeding times, rat tail transection model; format: in vivo; conditions: for neutralization of prolonged bleeding times: rat, enoxaparin 2 mg/kg IV
# Procedure: Studies have now been done to examine effects on extended bleeding times caused by enoxaparin treatment. Male Sprague Dawley rats (Charles River) were administered 2 mg/kg enoxaparin by IV injection in the tail vein, followed 3 minutes later by test agent (IV, tail vein) at 2 and 5 mg/kg doses. Tails were then rapidly transected and bleeding time onto an absorbant pad was determined. Enoxaparin alone (no antagonist) extends bleeding time from 11 to 24 seconds.
# [13] = Coagulation properties via ROTEM; conditions: at fully efficacious doses
# [14] = test system: Unfractionated heparin; assay: aPTT clotting assay, UFH 0.4 U/mL in plasma (Example 10); format: biochemical; conditions: unfractionated heparin 0.4 U/mL in plasma; aPTT clotting
# Procedure: aPTT clotting Assay: Unfractionated heparin was mixed with plasma at a final concentration of 0.4 U/mL (or concentration which increases aPTT time to between 120 and 300 seconds). […] The ACL Elite Hemostasis analyzer (Beckman Coulter™) was used to add aPTT reagent (HemosIL SynthASil) to supplemented plasma. Clotting was initiated by addition of CaCl2 and time to clot was recorded.
# [15] = test system: tinzaparin; assay: FXa amidolytic assay (Example 10), tinzaparin; conditions: read-out: Tinzap FXa EC50; tinzaparin 0.1 ug/ml; human antithrombin, bovine Factor Xa
# Procedure: as §2
structure (smiles),measurement,setting,value
COc1ccc(NC(=O)[C@@H](CCCNC(=N)N)NC(=O)c2cc(NC(=O)[C@@H](CCCNC(=N)N)NC(=O)c3cc(NC(=O)[C@@H](CCCNC(=N)N)NC(=O)c4cc(NC(=O)[C@H](N)CCCNC(=N)N)ccc4OC)ccc3OC)ccc2OCC(=O)O)cc1C(=O)N[C@H](Cc1c[nH]c2ccccc12)C(N)=O [Compound 305],reduction of Factor Xa (anti-factor Xa) levels after fondaparinux,[1],effective in reducing Factor Xa activity
same,in vivo efficacy versus fondaparinux (summary),[1],in vivo efficacy versus fondaparinux
same,in vivo efficacy versus LMWH by anti-factor Xa activity (summary),[2],superior to protamine
same,"neutralization of enoxaparin (aPTT and factor Xa assays, words)",[2],marginally more efficacious than the 3-Arg derivative
same,hemodynamic response profile,"[3]; anesthetized rat, 8 or 16 mg/kg 10 minute IV infusion after heparin 50 U/kg",superior to protamine
same,hemodynamic liabilities (summary),[3],reduced hemodynamic liabilities
same,Potent LMWH-antagonists with superior anti-fondaparinux activity (summary),[4],superior anti-fondaparinux activity
same,hemolysis and cytotoxicity (summary),[5],non-hemolytic and low cytotoxicity
same,"Cytotoxicity HepG2, percent printed in parentheses after the concentration",[6],50%
same,Cytotoxicity HepG2 EC50,[6],>1000 µg/mL
same,EC50 at 1 h,[7],1000 µg/mL
same,EC50,[8],0.186 µM
same,EC50,[9],0.343 µM
same,"Cytotoxicity 3T3, percent printed in parentheses after the concentration",[10],50%
same,Cytotoxicity 3T3 EC50,[10],>1000 µg/mL
same,EC50 at 1 h,[11],1000 µg/mL
same,in vivo efficacy versus LMWH by bleeding time (summary),[12]; compared with protamine,superior to protamine
same,neutralization of prolonged bleeding times,[12]; test agent 2 mg/kg IV,completely neutralized
same,coagulation properties via ROTEM,[13],normal coagulation properties at fully efficacious doses
COc1ccc(NC(=O)[C@H](CCCNC(=N)N)NC(=O)c2cc(NC(=O)[C@H](CCCNC(=N)N)NC(=O)c3cc(NC(=O)[C@H](CCCNC(=N)N)NC(=O)c4cc(NC(=O)[C@@H](N)CCCNC(=N)N)ccc4OC)ccc3OC)ccc2OCC(=O)O)cc1C(=O)N[C@@H](Cc1c[nH]c2ccccc12)C(N)=O [Compound 311],reduction of Factor Xa (anti-factor Xa) levels after fondaparinux,[1],markedly reduced
same,in vivo efficacy versus fondaparinux (summary),[1],in vivo efficacy versus fondaparinux
same,"neutralization of enoxaparin (aPTT and factor Xa assays, words)",[2],marginally more efficacious than the 3-Arg derivative
same,Potent LMWH-antagonists with superior anti-fondaparinux activity (summary),[4],superior anti-fondaparinux activity
same,EC50,"[4]; read-out: Fondap FXa EC50, fondaparinux 0.02 μg/mL, human antithrombin, bovine Factor Xa",0.09 µM and 0.154 µM
same,hemolysis and cytotoxicity (summary),[5],non-hemolytic and low cytotoxicity
same,EC50,[14],2.54 µM and 1.78 µM
same,"Cytotoxicity HepG2, percent printed in parentheses after the concentration",[6],50%
same,Cytotoxicity HepG2 EC50,[6],>1000 µg/mL
same,EC50 at 1 h,[7],1000 µg/mL
same,EC50,[15],0.108 µM and 0.15 µM
same,EC50,[8],0.101 µM and 0.14 µM
same,EC50,[9],0.245 µM
same,"Cytotoxicity 3T3, percent printed in parentheses after the concentration",[10],50%
same,Cytotoxicity 3T3 EC50,[10],>1000 µg/mL
same,EC50 at 1 h,[11],1000 µg/mL
same,coagulation properties via ROTEM,[13],normal coagulation properties at fully efficacious doses
COc1cc(OC)c(C(=O)N[C@H]2CC[C@H](NC(=O)c3cc(C(=O)NCCN(C)C)c(OCCCCCNC(=N)N)cc3OCCCCCNC(=N)N)CC2)cc1C(=O)N[C@H]1CC[C@H](NC(=O)c2cc(C(=O)NCCN(C)C)c(OCCCCCNC(=N)N)cc2OCCCCCNC(=N)N)CC1 [Compound B],reduction of Factor Xa (anti-factor Xa) levels after fondaparinux,[1],lack of effectiveness
same,in vivo efficacy versus LMWH by anti-factor Xa activity (summary),[2],superior to protamine
same,hemodynamic liabilities (summary),[3],reduced hemodynamic liabilities
same,Potent LMWH-antagonists with superior anti-fondaparinux activity (summary),[4],superior anti-fondaparinux activity
same,hemolysis and cytotoxicity (summary),[5],non-hemolytic and low cytotoxicity
same,neutralization of prolonged bleeding times,[12]; test agent 5 mg/kg IV,not completely reverse
same,coagulation properties via ROTEM,[13],normal coagulation properties at fully efficacious doses

# Reference: patent publication US20110178104A1, “Anti-Heparin Compounds” (POLYMEDIX INC., priority 2010, published 2011)
